Assay results as given in patent publication US7592365B2, “Substituted pyrroles, compositions containing same, method for making same and use thereof” (Aventis Pharma S.A., priority 2005, dated 2009).
pIC50: −log10 of the molar value.

Columns and labels:
human FAK = biological target: T1, human FAK (Homo sapiens, UniProt Q05397); assay: FAK autophosphorylation inhibition, time-resolved fluorescence test (HTRF); assay type: biochemical; details: 15 μM ATP, 1 hour at 37° C.; read-out: FAK IC 50
T1 construct: The complete human FAK cDNA, whose N-terminal end was labelled with histidine, was cloned into a baculovirus expression vector pFastBac HTc; made in house
T1 sequence (Q05397 whole entry): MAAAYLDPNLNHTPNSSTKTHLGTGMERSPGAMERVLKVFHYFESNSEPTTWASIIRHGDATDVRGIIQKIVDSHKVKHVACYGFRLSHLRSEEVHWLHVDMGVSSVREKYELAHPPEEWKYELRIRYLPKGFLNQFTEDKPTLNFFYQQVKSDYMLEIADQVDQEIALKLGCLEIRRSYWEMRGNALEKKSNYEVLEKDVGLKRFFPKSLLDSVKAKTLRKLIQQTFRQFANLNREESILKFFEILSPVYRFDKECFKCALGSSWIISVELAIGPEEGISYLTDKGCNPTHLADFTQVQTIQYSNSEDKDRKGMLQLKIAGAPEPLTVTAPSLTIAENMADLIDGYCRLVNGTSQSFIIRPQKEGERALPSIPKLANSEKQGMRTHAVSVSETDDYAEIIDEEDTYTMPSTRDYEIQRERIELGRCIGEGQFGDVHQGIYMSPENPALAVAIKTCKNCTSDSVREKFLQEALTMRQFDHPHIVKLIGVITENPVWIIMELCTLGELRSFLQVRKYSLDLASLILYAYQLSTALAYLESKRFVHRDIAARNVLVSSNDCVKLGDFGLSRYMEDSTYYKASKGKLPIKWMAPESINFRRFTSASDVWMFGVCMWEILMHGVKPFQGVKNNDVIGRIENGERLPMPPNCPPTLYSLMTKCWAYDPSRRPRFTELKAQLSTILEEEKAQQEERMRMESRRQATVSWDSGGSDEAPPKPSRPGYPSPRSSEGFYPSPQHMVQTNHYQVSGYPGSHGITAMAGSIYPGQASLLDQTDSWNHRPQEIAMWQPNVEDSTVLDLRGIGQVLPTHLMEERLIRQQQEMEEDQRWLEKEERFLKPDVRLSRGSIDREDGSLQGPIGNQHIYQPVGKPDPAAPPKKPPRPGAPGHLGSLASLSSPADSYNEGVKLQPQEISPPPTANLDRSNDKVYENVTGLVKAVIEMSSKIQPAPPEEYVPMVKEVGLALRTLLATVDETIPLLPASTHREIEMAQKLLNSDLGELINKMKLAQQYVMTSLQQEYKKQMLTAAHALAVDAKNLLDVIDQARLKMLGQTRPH
Procedure: The inhibitory activity of the compounds on FAK is determined by a measurement of the inhibition of the autophosphorylation of the enzyme using a time-resolved fluorescence test (HTRF).
The complete human FAK cDNA, whose N-terminal end was labelled with histidine, was cloned into a baculovirus expression vector pFastBac HTc. The protein was expressed and purified at about 70% homogeneity.
The kinase activity is determined by incubating the enzyme (6.6 μg/ml) with various concentrations of test compound in a 50 mM Hepes buffer, pH=7.2, containing 10 mM MgCl2, 100 μM Na3VO4, 15 μM ATP for 1 hour at 37° C. The enzymatic reaction is stopped by adding Hepes buffer, pH=7.0, containing 0.4 mM KF, 133 mM EDTA, 0.1% BSA and the labelling is carried out, for 1 to 2 hours at room temperature, by adding to this buffer an anti-histidine antibody labelled with XL665 and a monoclonal antibody phospho-specific for tyrosine, conjugated with europium cryptate (Eu-K). The characteristics of the two fluorophores are available in G. Mathis et al., Anticancer Research, 1997, 17, pages 3011-3014. The energy transfer between the excited europium cryptate to the acceptor XL665 is proportional to the degree of autophosphorylation of FAK. The signal of long duration specific for XL-665 is measured in a Packard Discovery plate counter. All the assays are performed in duplicate and the mean of the two assays is calculated. The inhibition of the FAK autophosphorylation activity with compounds of the invention is expressed as a percentage inhibition relative to a control whose activity is measured in the absence of test compound. For the calculation of the % inhibition, the [signal at 665 nm/signal at 620 nm] ratio is considered.

[1] = biological target: T2, human KDR enzyme (cytoplasmic domain, GST fusion) (Homo sapiens, UniProt P35968); assay: Phosphorylation of substrate by the KDR enzyme in vitro, scintillation technique; assay type: biochemical; details: 2 μM cold ATP, PLCγ SH2-SH3 substrate, 1 hour at 37° C.; read-out: KDR IC 50
T2 construct: The cytoplasmic domain of the human KDR enzyme was cloned in a GST fusion form; GST; made in house; host or cells: SF21 insect cells (baculovirus)
T2 sequence (P35968 786-1356 limits assumed): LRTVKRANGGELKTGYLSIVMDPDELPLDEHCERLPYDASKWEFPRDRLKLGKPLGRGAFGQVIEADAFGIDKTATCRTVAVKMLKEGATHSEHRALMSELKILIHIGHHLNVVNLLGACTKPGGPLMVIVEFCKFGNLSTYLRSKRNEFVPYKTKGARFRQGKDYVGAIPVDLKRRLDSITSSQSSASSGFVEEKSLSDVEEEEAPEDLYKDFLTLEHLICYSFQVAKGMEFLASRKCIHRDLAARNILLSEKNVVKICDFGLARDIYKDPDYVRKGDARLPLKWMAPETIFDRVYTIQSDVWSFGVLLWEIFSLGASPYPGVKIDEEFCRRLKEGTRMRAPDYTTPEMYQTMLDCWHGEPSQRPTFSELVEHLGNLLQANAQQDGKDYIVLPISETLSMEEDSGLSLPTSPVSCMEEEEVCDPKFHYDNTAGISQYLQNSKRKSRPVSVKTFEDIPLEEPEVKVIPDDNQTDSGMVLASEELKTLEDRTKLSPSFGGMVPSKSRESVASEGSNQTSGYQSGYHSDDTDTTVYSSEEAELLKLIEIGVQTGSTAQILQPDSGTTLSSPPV
Procedure: The inhibitory effect of the compounds is determined in a test of phosphorylation of substrate by the KDR enzyme in vitro by a scintillation technique (96-well plate, NEN).
The cytoplasmic domain of the human KDR enzyme was cloned in a GST fusion form into the baculovirus expression vector pFastBac. The protein was expressed in SF21 cells and purified to about 60% homogeneity.
The kinase activity of KDR is measured in 20 mM MOPS, 10 mM MgCl2, 10 mM MnCl2, 1 mM DTT, 2.5 mM EGTA, 10 mM b-glycerophosphate, pH=7.2, in the presence of 10 mM MgCl2, 100 μM Na3VO4, 1 mM NaF. 10 μl of the compound are added to 70 μl of kinase buffer containing 100 ng of KDR enzyme at 4° C. The reaction is initiated by adding 20 μl of solution containing 2 μg of substrate (SH2—SH3 fragment of PLCγ expressed in the form of a GST fusion protein), 2 μCi γ ^33P[ATP] and 2 μM cold ATP. After incubating for 1 hour at 37° C., the reaction is stopped by adding 1 volume (100 μl) of 200 mM EDTA. The incubation buffer is removed and the wells are washed three times with 300 μl of PBS. The radioactivity is measured in each well using a Top Count NXT (Packard) radioactivity counter.
The background noise is determined by measuring the radioactivity in four different wells containing radioactive ATP and the substrate alone.
A control for total activity is measured in four different wells all containing the reagents (γ^33P-[ATP], KDR and PLCγ substrate) but in the absence of compound.
The inhibition of the KDR activity with the compound of the invention is expressed as percentage inhibition of the control activity determined in the absence of compound.
The compound SU5614 (Calbiochem) (1 μM) is included in each plate as control for inhibition.

[2] = biological target: T3, human Tie2 (intracellular domain 776-1124, GST fusion) (Homo sapiens, UniProt Q02763); assay: Phosphorylation of PLC by Tie2 (GST-Tie2), FlashPlate radioactivity test; assay type: biochemical; details: 2 μM cold ATP, GST-PLC substrate, 1 hour at 37° C.; read-out: TEI2 IC 50
T3 construct: the amino acids of the intracellular domain 776-1124; made in house
T3 sequence (Q02763 776-1124): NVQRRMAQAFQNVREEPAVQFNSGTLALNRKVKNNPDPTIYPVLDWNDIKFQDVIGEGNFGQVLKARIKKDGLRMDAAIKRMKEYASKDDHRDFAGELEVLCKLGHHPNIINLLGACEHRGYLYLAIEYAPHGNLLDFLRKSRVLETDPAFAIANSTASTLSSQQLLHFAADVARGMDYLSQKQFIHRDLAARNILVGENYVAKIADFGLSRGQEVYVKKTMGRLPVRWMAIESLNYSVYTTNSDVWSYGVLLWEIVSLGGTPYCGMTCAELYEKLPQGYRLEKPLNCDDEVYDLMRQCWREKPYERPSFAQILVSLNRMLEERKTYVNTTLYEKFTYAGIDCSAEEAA
Procedure: The coding sequence for human Tie2 corresponding to the amino acids of the intracellular domain 776-1124 was generated by PCR using the cDNA isolated from human placenta as model. This sequence was introduced into a baculovirus expression vector pFastBacGT in the form of a GST fusion protein.
The inhibitory effect of the molecules is determined in a test of phosphorylation of PLC by Tie2 in the presence of GST-Tie2 purified to about 80% homogeneity. The substrate is composed of the SH2—SH3 fragments of PLC expressed in the form of the GST fusion protein.
The kinase activity of Tie2 is measured in a 20 mM MOPS buffer, pH 7.2, containing 10 mM MgCl2, 10 mM MnCl2, 1 mM DTT, 10 mM glycero-phosphate. A reaction mixture composed of 70 μl of kinase buffer containing 100 ng of GST-Tie2 enzyme per well is deposited in a FlashPlate 96-well plate kept on ice. 10 μl of the test molecule diluted in DMSO to a concentration of 10% maximum are then added. For a given concentration, each measurement is carried out in quadruplicate. The reaction is initiated by adding 20 μl of solution containing 2 μg of GST-PLC, 2 μM of cold ATP and 1 μCi of d′^33P[ATP]. After incubating for 1 hour at 37° C., the reaction is stopped by adding 1 volume (100 μl) of EDTA at 200 mM. After removing the incubation buffer, the wells are washed three times with 300 μl of PBS. The radioactivity is measured on a Wallac MicroBeta1450.
The inhibition of the Tie2 activity is calculated and expressed as a percentage inhibition relative to the control activity determined in the absence of compound.

SMILES	pIC50 (human FAK)	pIC50 [1]	pIC50 [2]	melting point [°C]
NC(=O)c1c[nH]cc1-c1ccc(NC(=O)Nc2cc(C(F)(F)F)ccc2F)cc1 [Example 1, 4-{4-[3-(2-Fluoro-5-trifluoromethylphenyl)ureido]phenyl}-1H-pyrrole-3-carboxamide]	5.69	5.19	7.16	–
CCCC(=O)Nc1[nH]cc(-c2ccc(NC(=O)Nc3cc(C(F)(F)F)ccc3F)cc2)c1C(N)=O [Example 5, 2-Butyrylamino-4-{4-[3-(2-fluoro-5-trifluoromethylphenyl)ureido]phenyl}-1H-pyrrole-3-carboxamide]	6.58	7.38	7.96	–
CC(=O)Nc1[nH]cc(-c2ccc(NC(=O)Nc3ccc(C)c(C)c3)cc2)c1C(N)=O [Example 19, 2-Acetylamino-4-{4-[3-(3,4-dimethylphenyl)ureido]phenyl}-1H-pyrrole-3-carboxamide]	6.14	7.89	6.90	–
CC(=O)Nc1[nH]cc(-c2ccc(NC(=O)Nc3ccc(OC(F)(F)F)cc3)cc2)c1C(N)=O [Example 21, 2-Acetylamino-4-{4-[3-(4-trifluoromethoxyphenyl)ureido]phenyl}-1H-pyrrole-3-carboxamide]	6.79	7.72	6.93	–
CC(=O)Nc1[nH]cc(-c2ccc(NC(=O)Nc3ccc(C)c(C(F)(F)F)c3)cc2)c1C(N)=O [Example 40, 2-Acetylamino-4-{4-[3-(4-methyl-3-trifluoromethylphenyl)ureido]phenyl}-1H-pyrrole-3-carboxamide]	–	–	–	266
